Data from ChEMBL document CHEMBL5034010, “Novel Cephalosporin Conjugates Display Potent and Selective Inhibition of Imipenemase-Type Metallo-β-Lactamases” (J Med Chem, 2021).
pKd: −log10 of the molar value. Calls of active or inactive are those of the source. The calls are words filed in the database; no cut-off is given here.

Experiments:
Enterobacter cloacae = test: Inhibition of Enterobacter cloacae Metallo-beta-lactamase IMP-1
Klebsiella pneumoniae = test: Inhibition of Klebsiella pneumoniae beta Metallo-beta-lactamase IMP-28
[1] = Binding affinity to Zinc incubated for 2 hrs measured by isothermal titration calorimetric assay

inhibition (Enterobacter cloacae): Active | inhibition (Klebsiella pneumoniae): Active | pKd [1]: 5.50
Structure (SMILES): O=C(Cc1ccccc1)N[C@H](C(=O)O)[C@@H]1N=C(C(=O)O)C(CSC(Cc2ccccc2)C(=O)O)CS1 (stereo partly drawn)
